Measurements from PubChem BioAssay (NCI).
Several values for one entry are separate records, joined by “and”; a condition that tells them apart may be missing. Equal entries are not always repeated.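 Each compound was tested at five concentrations against cells in 96-well plates for 48 hours. GI50 marks 50% less growth. The concentration for full growth arrest is given as TGI.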

Key:
Test in all cases: NCI-60 cell line screen, 48 h
HCC-2998 colon = tested on: HCC-2998 colon
MCF7 breast = tested on: MCF7 breast
NCI-H226 lung = tested on: NCI-H226 lung
NCI-H23 lung = tested on: NCI-H23 lung
NCI-H522 lung = tested on: NCI-H522 lung
OVCAR-4 ovarian = tested on: OVCAR-4 ovarian
SF-295 CNS = tested on: SF-295 CNS
SF-539 CNS = tested on: SF-539 CNS
SK-MEL-28 melanoma = tested on: SK-MEL-28 melanoma
U251 CNS = tested on: U251 CNS

| SMILES | GI50 (HCC-2998 colon) | TGI (HCC-2998 colon) | GI50 (MCF7 breast) | TGI (MCF7 breast) | GI50 (NCI-H226 lung) | TGI (NCI-H226 lung) | GI50 (NCI-H23 lung) | TGI (NCI-H23 lung) | GI50 (NCI-H522 lung) | TGI (NCI-H522 lung) | GI50 (OVCAR-4 ovarian) | TGI (OVCAR-4 ovarian) | GI50 (SF-295 CNS) | TGI (SF-295 CNS) | GI50 (SF-539 CNS) | TGI (SF-539 CNS) | GI50 (SK-MEL-28 melanoma) | TGI (SK-MEL-28 melanoma) | GI50 (U251 CNS) | TGI (U251 CNS) |
| --- | --- | --- | --- | --- | --- | --- | --- | --- | --- | --- | --- | --- | --- | --- | --- | --- | --- | --- | --- | --- |
| O=C(CCN1CCCN(c2cnc3ccccc3n2)CC1)c1csc2ccccc12 | 16.9 µM | 33.2 µM | 3.2 µM | 16.4 µM | 21.1 µM | 38.5 µM | 20.8 µM | 46.7 µM | 17.3 µM | 31.7 µM | 18.5 µM | 35.1 µM | 58 µM | > 100 µM | 18.9 µM | 33.2 µM | 20.6 µM | 37.1 µM | 17.6 µM | 31.4 µM |
| NC1(C(=O)N[C@@H](CCO)c2ccc(Cl)cc2)CCN(c2ncnc3[nH]ccc23)CC1 | > 2.1 µM and 8.17 µM | > 100 µM | 0.632 µM and 1.72 µM | > 100 µM | 2.14 µM and 7.92 µM | > 83.4 µM | > 3.45 µM and 13.9 µM | > 100 µM | > 2.05 µM and 17.1 µM | > 90.3 µM | > 3.08 µM and 33.7 µM | > 100 µM | 0.455 µM and 0.482 µM | > 5.03 µM and 12.9 µM | 0.223 µM and 0.417 µM | 2.42 µM and 13.2 µM | 1.69 µM and 7.47 µM | > 100 µM | > 3.38 µM and 2 µM | > 100 µM |
| CC(C)C1=CC2=C(C(=O)C1=O)C13CCCC(C)(C)C1CC2OC3=O (stereo not drawn) |  | 46.3 µM |  | 55.5 µM |  | 49.2 µM |  | 61.7 µM |  | 30.6 µM |  | 40.6 µM |  | > 100 µM |  | 46.3 µM |  | 31.7 µM |  | 49.7 µM |
| CN(C)C1CN(C(=O)c2cc(-c3ccc4ncnc(N5CCc6cc(F)c(Cl)cc65)c4c3)cnc2N)C1 | 0.71 µM | > 100 µM | 0.303 µM | > 100 µM | 0.986 µM | > 100 µM | 1.25 µM | > 100 µM | 1.77 µM | > 100 µM |  |  | 1.18 µM | > 100 µM | 0.827 µM | 5.07 µM | 0.869 µM | > 100 µM | 1.34 µM | > 100 µM |
| Nc1n[nH]c2ccc([C@@H]3Nc4ccc5cn[nH]c5c4[C@H]4C5CCC(C5)[C@@H]34)cc12 (stereo partly drawn) | 0.962 µM | > 50.2 µM | 0.347 µM | > 76.8 µM | 0.977 µM | 50 µM | 0.453 µM | 38.5 µM | 0.385 µM | 54.6 µM | 2.63 µM | > 100 µM | 0.277 µM | 13.2 µM | 0.299 µM | 3.38 µM | 1.05 µM | > 100 µM | 0.436 µM | > 100 µM |
| c1ccc(CC(Nc2cccnc2)c2ccccc2)cc1 (stereo not drawn) |  | 39.9 µM |  | > 100 µM |  | 51.4 µM |  | 82.2 µM |  | 60.4 µM |  | > 100 µM |  | 43.3 µM |  | 40.5 µM |  | > 100 µM |  | 42 µM |
| COc1cc(C(=O)NN=C2c3ccccc3-c3ccccc32)cc(OC)c1OC | 10.5 µM | 57.8 µM | 2.28 µM | > 100 µM | 14.8 µM | 73.9 µM | 3.94 µM | 41.4 µM | 1.77 µM | 5.8 µM | 17.5 µM | > 100 µM | 1.99 µM | 7.13 µM | 2.1 µM | 5.32 µM | 6.26 µM | > 100 µM | 3.3 µM | 20.3 µM |
| CCCCCCCCCC[C@H](O)[C@H]1CC[C@@H]([C@@H](O)CC[C@H](O)[C@@H]2CCC(CCCCCCC[C@@H](O)CC3=C[C@H](C)OC3=O)O2)O1 (stereo partly drawn) |  | 19 µM | 3 µM | 9.6 µM and 22.9 µM | 8.54 µM | 6.43 µM and 36 µM |  | 3.68 µM and 19.2 µM |  | 18 µM |  | 19.6 µM | 1.22 µM | 15 µM | 4.33 µM | 3.86 µM and 25.8 µM | 7.62 µM | 5.44 µM and 39 µM | 8.25 µM |  |
| CO/C(=C1/NC(=O)C(Cc2ccc(O)c(Br)c2)N(C)C(=O)C(C)NC(=O)CCC/C=C(\C)CCC(C)OC1=O)c1ccccc1 (stereo not drawn) | < 0.0154 µM | 0.311 µM | < 0.0165 µM | 1.9 µM | 0.365 µM | 3.17 µM | 0.106 µM | 22.4 µM | 0.0281 µM | 0.438 µM | 0.0225 µM |  | 0.0502 µM | 0.17 µM | 0.0281 µM | 0.783 µM | < 0.0134 µM | 0.0419 µM | 0.0199 µM | 0.0909 µM |
| C=C(Br)COc1ccc2c(C)cc(=O)oc2c1 |  | > 100 µM |  | 19.7 µM |  | > 100 µM |  | > 100 µM |  | > 100 µM |  | > 100 µM |  |  |  | > 100 µM |  | > 100 µM |  | > 100 µM |
| CC#CC#C/C(=C/C=CC(=O)OC)SC |  | > 100 µM |  | > 100 µM |  | > 100 µM |  |  |  | > 100 µM |  | > 100 µM |  | > 100 µM |  | > 100 µM |  | > 100 µM |  | > 100 µM |
| O=C(Nc1cccc(-n2cc(-c3ccncc3)c(-c3ccc(Cl)c(O)c3)n2)c1)Nc1ccc(Cl)c(Cl)c1 | 2.89 µM | 13.9 µM | 1.06 µM | > 32.5 µM | 1.51 µM | > 32.5 µM | 1.22 µM | 29.1 µM | 1.19 µM | 10.6 µM | 1.69 µM | > 32.5 µM |  |  | 1.34 µM | 8.97 µM | 1.46 µM | 9.85 µM | 1.51 µM | 9.68 µM |
